Assay results taken from patent US6914045B2, “Glycopeptide antibiotics” (Wyeth Holdings Corporation, priority 2001, dated 2005).
In brackets after ≈: the same amount, converted by molar mass.

Experiments:
Experiment in all cases: in vitro antibacterial evaluation, MIC by broth dilution
Type in all cases: cell-based
[1] = tested on: Enterococcus sp.; details: broth dilution, 18 hours at 35° C.
Method in brief: (§1)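 Read-out: the lowest concentration at which the test strain fails to grow. Serial dilutions (64-0.06 μg/mL) in Muller-Hinton II […], 5×10^5 CFU/mL inoculum, NCCLS M7-A2 procedure.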

[2] = tested on: Escherichia coli; details: 18 hours at 35° C.
Method in brief: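 Step 1: dilute antibiotic across 64-0.06 μg/mL in Muller-Hinton II […]. Step 2: inoculate at 5×10^5 CFU/mL.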

[3] = tested on: Staphylococcus sp.; details: broth dilution, 18 hours at 35° C.
Method in brief: as §1

[4] = tested on: Streptococcus sp.; details: broth dilution, 18 hours at 35° C.
Method in brief: as §1

## CC(=O)OCC1OC(OC2C(CO)OC(Oc3ccc(CC4NC(=O)C(C(C)c5ccccc5)NC(=O)CNC(=O)C(CO)NC(=O)C(C(O)C5CNC(=N)N5C5OC(CO)C(O)C(O)C5O)NC(=O)C(C(O)C5CNC(=N)N5)NC4=O)cc3)C(O)C2O)C(O)C(OC(=O)CCC(C)C)C1O (stereo not drawn) [Example 270b, Cyclo[glycyl-β-methylphenylalanyl-O-[4-O-[6-O-acetyl-3-O-(4-methylpentanoyl)hexopyranosyl]hexopyranosyl]tyrosyl-3-(2-iminoimidazolidin-4-yl)seryl-3-(3-hexopyranosyl-2-iminoimidazolidin-4-yl)serylseryl]]
[1]; Enterococcus avium (GC 4558)
  MIC Enterococcus avium (GC 4558): 32 µg/mL (≈ 22.3 µM)
[1]; Enterococcus faecalis (ATCC 29212)
  MIC Enterococcus faecalis (ATCC 29212): 32 µg/mL (≈ 22.3 µM)
[1]; Enterococcus faecalis (GC 4553)
  MIC Enterococcus faecalis (GC 4553): 32 µg/mL (≈ 22.3 µM)
[1]; Enterococcus faecalis (GC 4554)
  MIC Enterococcus faecalis (GC 4554): 32 µg/mL (≈ 22.3 µM)
[1]; Enterococcus faecium (GC 2243)
  MIC Enterococcus faecium (GC 2243): 32 µg/mL (≈ 22.3 µM)
[1]; Enterococcus faecium (GC 4556)
  MIC Enterococcus faecium (GC 4556): 32 µg/mL (≈ 22.3 µM)
[1]; Enterococcus faecium (GC 4557)
  MIC Enterococcus faecium (GC 4557): 8 µg/mL (≈ 5.57 µM)
[1]; strain ATCC 29212
  MIC Enterococcus faecalis (ATCC 29212): 32 µg/mL (≈ 22.3 µM)
[1]; strain GC 2242
  MIC Enterococcus faecalis (GC 2242): 16 µg/mL (≈ 11.1 µM)
[1]; strain GC 2243
  MIC Enterococcus faecium (GC 2243): 32 µg/mL (≈ 22.3 µM)
[1]; strain GC 4552
  MIC Enterococcus faecalis (GC 4552): 32 µg/mL (≈ 22.3 µM)
[1]; strain GC 4553
  MIC Enterococcus faecalis (GC 4553): 32 µg/mL (≈ 22.3 µM)
[1]; strain GC 4554
  MIC Enterococcus faecalis (GC 4554): 32 µg/mL (≈ 22.3 µM)
[1]; strain GC 4556
  MIC Enterococcus faecium (GC 4556): 32 µg/mL (≈ 22.3 µM)
[1]; strain GC 4557
  MIC Enterococcus faecium (GC 4557): 8 µg/mL (≈ 5.57 µM)
[1]; strain GC 4558
  MIC Enterococcus avium (GC 4558): 32 µg/mL (≈ 22.3 µM)
[2]; Escherichia coli (ATCC 25922)
  MIC Escherichia coli (ATCC 25922): >64 µg/mL
[2]; Escherichia coli (GC 4559)
  MIC Escherichia coli (GC 4559): >64 µg/mL
[2]; Escherichia coli (GC 4560)
  MIC Escherichia coli (GC 4560): 4 µg/mL (≈ 2.79 µM)
[3]
  MIC Coagulase Negative Staphylococcus (GC 4547): 4 µg/mL (≈ 2.79 µM)
  MIC Coagulase Negative Staphylococcus (GC 4548): 4 µg/mL (≈ 2.79 µM)
  MIC Coagulase Negative Staphylococcus (GC 4549): 4 µg/mL (≈ 2.79 µM)
  MIC Coagulase Negative Staphylococcus (GC 4551): 4 µg/mL (≈ 2.79 µM)
  MIC Staphylococcus aureus (ATCC 29213): 8 µg/mL (≈ 5.57 µM)
  MIC Staphylococcus aureus (GC 1131): 8 µg/mL (≈ 5.57 µM)
  MIC Staphylococcus aureus (GC 4541): 8 µg/mL (≈ 5.57 µM)
  MIC Staphylococcus aureus (GC 4542): 8 µg/mL (≈ 5.57 µM)
  MIC Staphylococcus aureus (GC 4544): 8 µg/mL (≈ 5.57 µM)
  MIC Staphylococcus aureus (GC 4545): 4 µg/mL (≈ 2.79 µM)
  MIC Staphylococcus aureus-SMITH (GC 4543): 4 µg/mL (≈ 2.79 µM)
  MIC Staphylococcus haemolyticus (GC 4546): 4 µg/mL (≈ 2.79 µM)
[3]; strain ATCC 29213
  MIC Staphylococcus aureus (ATCC 29213): 8 µg/mL (≈ 5.57 µM)
[3]; strain GC 1131
  MIC Staphylococcus aureus (GC 1131): 8 µg/mL (≈ 5.57 µM)
[3]; strain GC 4541
  MIC Staphylococcus aureus (GC 4541): 8 µg/mL (≈ 5.57 µM)
[3]; strain GC 4542
  MIC Staphylococcus aureus (GC 4542): 8 µg/mL (≈ 5.57 µM)
[3]; strain GC 4544
  MIC Staphylococcus aureus (GC 4544): 8 µg/mL (≈ 5.57 µM)
[3]; strain GC 4545
  MIC Staphylococcus aureus (GC 4545): 4 µg/mL (≈ 2.79 µM)
[3]; strain GC 4546
  MIC Staphylococcus haemolyticus (GC 4546): 4 µg/mL (≈ 2.79 µM)
[3]; strain GC 4547
  MIC Coagulase Negative Staphylococcus (GC 4547): 4 µg/mL (≈ 2.79 µM)
[3]; strain GC 4548
  MIC Coagulase Negative Staphylococcus (GC 4548): 4 µg/mL (≈ 2.79 µM)
[3]; strain GC 4549
  MIC Coagulase Negative Staphylococcus (GC 4549): 4 µg/mL (≈ 2.79 µM)
[3]; strain GC 4551
  MIC Coagulase Negative Staphylococcus (GC 4551): 4 µg/mL (≈ 2.79 µM)
[3]; strain SMITH GC 4543
  MIC Staphylococcus aureus-SMITH (GC 4543): 4 µg/mL (≈ 2.79 µM)
[4]; strain GC 4564
  MIC Streptococcus agalactiae (GC 4564): 2 µg/mL (≈ 1.39 µM)
[4]; strain ID-3187
  MIC Streptococcus pyogenes (ID-3187): 2 µg/mL (≈ 1.39 µM)
